Data on 2 molecules can be found in article PMC5884060 (Biochemistry, 2018).

One data set has as its system PDIA1 C53A and C397A. The class given is binding. To be noted: from IC50 values; PDIA1 C53A and C397A 50 μg/mL in MCF-7 lysates 1 mg/mL, CA-Rh 8 μM.
The target in data set [1] is T1, PDIA1 (Homo sapiens, UniProt P07237). In words: Insulin turbidity assay. To be noted: for kinact/KI: 0.5 μM PDIA1, 0.16 mM insulin, 1 mM DTT, varying concentrations and pre-incubation times.
The target of data set [2] is T2, purified, recombinant PDIA1 (Homo sapiens, UniProt P07237). Nature of the data set: In-gel fluorescence screen: covalent modification of purified recombinant PDIA1. In kind it is binding. Conditions: compound 5 μM, PDIA1 50 μg/mL, 1 hour, TAMRA in-gel fluorescence.
In data set [3] the target is T2, purified, recombinant PDIA1. Nature of the data set: In-gel fluorescence: recombinant PDIA1 in the background of MCF-7 cell lysates. In kind it is binding. To be noted: PDIA1 50 μg/mL in MCF-7 cell lysates 1 mg/mL.
The next data set has as its target endogenous PDIA1 (Homo sapiens, UniProt P07237). In words: In-gel fluorescence: endogenous PDIA1 in MCF-7 lysates. The class given is binding. Conditions: compound 5 μM, MCF-7 lysates 2 mg/mL.
A further data set has as its system SKOV-3. In words: qPCR analysis of UPR target genes. In kind it is cell-based. To be noted: SKOV-3 cells.
In data set [4] the test system is HEK293^Trex cells stably expressing ^FTALLC. Nature of the data set: FTALLC secretion by ELISA. In kind it is cell-based. To be noted: KSC-34 40 μM, 4 h pretreatment, 2 h conditioning, compared to vehicle.
For data set [5] the test system is unchanged. Nature of the data set: Viability by Cell Titre Glo. In kind it is cell-based. To be noted: KSC-34 40 μM, Cell Titre Glo after media conditioning.
For another data set, the system named is HEK293^DAX cells. Nature of the data set: [35S] metabolic labeling, fraction FTALLC secreted. In kind it is cell-based. Conditions: KSC-34 40 μM added 1 h prior to labeling and throughout.
The target in data set [6] is T1, PDIA1. Conditions: 5 μM, MCF-7 cells, 3 hours at 37 °C.
Another data set deals with PDIA1 C53A (Homo sapiens, UniProt P07237, C53A). Conditions: KSC-34 5 μM, protein 50 μg/mL, 1 hour.
For a further data set, the target named is PDIA3 (Homo sapiens, UniProt P30101). Conditions: PDIA3 50 μg/mL, with or without MCF-7 lysates 1 mg/mL.
The target of data set [7] is T3, PDIA4 (Homo sapiens, UniProt P13667). To be noted: PDIA4 50 μg/mL, with or without MCF-7 lysates 1 mg/mL.
Data set [8] has as its target T1, PDIA1. To be noted: MCF-7 cells, KSC-34 5 μM; ~5 in the DMSO control.
Another data set addresses PDIA6 (Homo sapiens, UniProt Q15084). Conditions: MCF-7 cells, KSC-34 5 μM.
Data set [9] relates to MCF-7 cells. To be noted: read-out: EC50 MTT cell viability.
The test system of data set [10] is MCF-7 cells.
Data set [11] addresses T1, PDIA1. To be noted: HEK293^DAX cells, KSC-34 40 μM, 1 h pre-treatment.
The target of data set [12] is T3, PDIA4. To be noted: HEK293^DAX cells, KSC-34 40 μM, 1 h pre-treatment.
Data set [13] concerns HEK293^DAX cells stably expressing PDIA1 shRNA. To be noted: KSC-34 40 μM, ELISA and [35S] metabolic labeling.
The target in data set [14] is prostaglandin E synthase 2 (PTGES2) (Homo sapiens, UniProt Q9H7Z7). Nature of the data set: Proteome-wide target enrichment, LC/LC-MS/MS spectral counts. To be noted: MCF-7 cells, KSC-34 5 μM.
Sequence of prostaglandin E synthase 2 (PTGES2) (Q9H7Z7 whole entry): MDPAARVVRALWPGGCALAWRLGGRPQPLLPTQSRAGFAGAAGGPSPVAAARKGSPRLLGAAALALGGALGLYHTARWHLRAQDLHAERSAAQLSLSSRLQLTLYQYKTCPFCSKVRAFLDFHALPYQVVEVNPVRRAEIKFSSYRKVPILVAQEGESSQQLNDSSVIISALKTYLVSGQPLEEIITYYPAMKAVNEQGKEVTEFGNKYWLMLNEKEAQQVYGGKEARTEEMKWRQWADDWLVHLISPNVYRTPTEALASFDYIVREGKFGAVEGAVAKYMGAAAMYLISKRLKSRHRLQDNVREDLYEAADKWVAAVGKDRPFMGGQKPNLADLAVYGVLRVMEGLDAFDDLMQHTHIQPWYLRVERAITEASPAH

T1 sequence (P07237 18-508): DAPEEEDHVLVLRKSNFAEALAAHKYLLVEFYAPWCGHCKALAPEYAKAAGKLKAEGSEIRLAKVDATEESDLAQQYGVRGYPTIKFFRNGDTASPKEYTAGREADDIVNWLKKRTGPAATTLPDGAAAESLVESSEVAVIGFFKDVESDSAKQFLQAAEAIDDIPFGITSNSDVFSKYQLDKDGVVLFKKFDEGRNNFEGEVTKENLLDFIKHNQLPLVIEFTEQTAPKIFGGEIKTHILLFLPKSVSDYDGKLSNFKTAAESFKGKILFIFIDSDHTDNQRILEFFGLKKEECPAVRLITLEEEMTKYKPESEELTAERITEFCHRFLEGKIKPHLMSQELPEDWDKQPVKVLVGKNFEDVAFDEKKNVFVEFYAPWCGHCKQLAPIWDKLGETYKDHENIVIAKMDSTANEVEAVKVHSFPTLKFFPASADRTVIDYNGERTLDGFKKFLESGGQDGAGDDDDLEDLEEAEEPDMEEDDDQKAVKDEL
T3 sequence (P13667 21-645, species assumed): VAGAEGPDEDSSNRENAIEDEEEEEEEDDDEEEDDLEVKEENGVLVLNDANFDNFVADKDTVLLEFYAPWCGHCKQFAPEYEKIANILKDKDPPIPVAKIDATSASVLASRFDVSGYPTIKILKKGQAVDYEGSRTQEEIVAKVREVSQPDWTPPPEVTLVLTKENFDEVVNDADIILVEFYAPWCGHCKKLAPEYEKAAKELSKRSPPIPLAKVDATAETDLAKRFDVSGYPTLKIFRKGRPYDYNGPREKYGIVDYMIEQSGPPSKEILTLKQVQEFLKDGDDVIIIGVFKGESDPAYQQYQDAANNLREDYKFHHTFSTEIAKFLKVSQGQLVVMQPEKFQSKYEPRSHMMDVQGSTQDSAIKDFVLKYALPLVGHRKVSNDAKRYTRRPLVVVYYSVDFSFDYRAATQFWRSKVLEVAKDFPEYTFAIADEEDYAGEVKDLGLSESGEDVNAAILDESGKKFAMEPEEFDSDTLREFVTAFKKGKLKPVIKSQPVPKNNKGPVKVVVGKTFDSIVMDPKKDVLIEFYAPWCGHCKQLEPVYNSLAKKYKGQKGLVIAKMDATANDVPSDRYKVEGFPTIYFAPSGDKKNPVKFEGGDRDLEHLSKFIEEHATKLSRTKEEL
T2 sequence (P07237 18-508): as the sequence (P07237 18-508) above
Sequence of PDIA6 (Q15084 20-440): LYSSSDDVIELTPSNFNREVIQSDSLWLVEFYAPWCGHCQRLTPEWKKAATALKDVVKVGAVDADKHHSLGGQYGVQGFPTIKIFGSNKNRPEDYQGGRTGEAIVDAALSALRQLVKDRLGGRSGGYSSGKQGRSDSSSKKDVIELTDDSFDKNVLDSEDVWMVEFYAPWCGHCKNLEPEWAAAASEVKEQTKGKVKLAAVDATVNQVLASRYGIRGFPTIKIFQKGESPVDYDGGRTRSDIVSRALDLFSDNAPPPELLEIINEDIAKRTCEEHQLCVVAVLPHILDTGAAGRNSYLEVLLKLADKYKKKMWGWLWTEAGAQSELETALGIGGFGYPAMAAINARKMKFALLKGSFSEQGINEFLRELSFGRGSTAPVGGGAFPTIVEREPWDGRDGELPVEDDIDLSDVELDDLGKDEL
Sequence of endogenous PDIA1 (P07237 18-508): as the sequence (P07237 18-508) above
Sequence of PDIA1 C53A (P07237 18-508 C53A): as the sequence (P07237 18-508) above, with C36A counted along it
Sequence of PDIA3 (P30101 25-505, species assumed): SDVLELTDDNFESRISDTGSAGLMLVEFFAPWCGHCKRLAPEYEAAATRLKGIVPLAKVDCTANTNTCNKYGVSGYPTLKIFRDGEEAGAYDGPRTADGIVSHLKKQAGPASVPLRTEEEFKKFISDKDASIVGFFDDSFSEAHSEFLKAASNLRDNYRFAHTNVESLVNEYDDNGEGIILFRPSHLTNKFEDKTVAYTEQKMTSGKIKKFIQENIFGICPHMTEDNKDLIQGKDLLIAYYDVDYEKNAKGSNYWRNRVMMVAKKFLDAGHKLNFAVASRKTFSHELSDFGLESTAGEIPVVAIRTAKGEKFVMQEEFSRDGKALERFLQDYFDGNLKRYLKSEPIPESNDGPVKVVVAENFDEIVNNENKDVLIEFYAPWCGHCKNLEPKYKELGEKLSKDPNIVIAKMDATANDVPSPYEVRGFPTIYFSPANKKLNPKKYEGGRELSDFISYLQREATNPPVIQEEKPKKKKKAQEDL

With 16F16 [reference compound], the “selectivity for the a domain over the a′ domain” value in the data set with PDIA1 C53A and C397A was 2 fold. In addition, at PDIA1 [1], the inactivation efficiency (kinact/KI) amounted to 252 M⁻¹ s⁻¹.
`C#CCNc1nc(NCCNC(=O)CCl)nc(N(C)CCCCc2ccccc2)n1` [KSC-34]: the “covalent modification of PDIA1 relative to RB-11-ca” value in data set [2] is on record as “equal or greater potency compared to RB-11-ca”; in data set [3], “equal or greater potency to RB-11-ca”. In addition, the “covalent modification of endogenous PDIA1 relative to RB-11-ca” value on endogenous PDIA1 is listed as “equal or greater potency toward PDIA1 compared to RB-11-ca”. In the data set with PDIA1 C53A and C397A, the “selectivity for the a domain over the a′ domain” value was found to be 30 fold. Moreover, the “effect on IRE1α-dependent UPR transcripts” value in the data set on SKOV-3 and with A549 cells was “no significant effects” throughout. The “reduction of FTALLC levels in conditioned media” value in [4] was determined as 40%. For the same molecule, the “reduction in cellular viability” value in data set [5] was found to be 20%. Besides, the “reduction of fraction of [35S]-labeled FTALLC secreted” value in the data set on HEK293^DAX cells worked out at 30%. Also, at PDIA1 [6], the “potency of PDIA1 modification in living cells compared to RB-11-ca” value is recorded as ~ 8 fold. Moreover, the “labeling of PDIA1 C53A” value at PDIA1 C53A is “absence of fluorescence”. Moreover, the “labeling of PDIA3” value at PDIA3 is “absence of fluorescence”. The “labeling of PDIA4” value at PDIA4 [7] is “absence of fluorescence”. Also, the “average spectral counts matched to PDIA1” value at PDIA1 [8] is ~ 2000 spectral counts. Besides, the “spectral counts PDIA6” value at PDIA6 is recorded as ~ 20 spectral counts. The 50% effective concentration (EC50) with MCF-7 cells [9] is 82 µM. In addition, the “timeframe of IRE1α activation” value in the data set with MCF-7 cells [10] is less than 6 h. The “activation of the PERK and ATF6 arms of the UPR” value in the data set on MCF-7 cells [10] (4–40 μM, 3 hours at 37 °C) is on record as “no significant activation”. Besides, in the data set with MCF-7 cells [10] (>20 μM KSC-34, 3 hours, relative to DMSO), the “increase in SEC24D and ERDJ4 mRNA levels” value was ~ 2 fold. Also, the “interaction of PDIA1 with FTALLC (co-IP)” value on PDIA1 [11] is recorded as “disrupted this interaction”. The “interaction of PDIA4 with FTALLC (co-IP)” value on PDIA4 [12] is reported as “does not influence the interaction between these proteins”. The “KSC-34-dependent reduction in FTALLC secretion upon depletion of PDIA1” value in data set [13] is “attenuated”. Further, the kinact/KI at PDIA1 [1] turned out to be 9660 M⁻¹ s⁻¹. Besides, the “potency (kinact/KI) relative to RB-11-ca” value on PDIA1 [1] (insulin turbidity assay) is ~ 3 fold. The “average spectral counts PTGES2” value in [14] is listed as ~ 120 spectral counts.
